Measured values as given in the supplement of paper PMC13380429.

Legend:
[1] = tested on: A549-ACE2 infected with SARS-CoV-2; assay: cell count relative to DMSO; higher = less toxic; settings: 24 h
Caco-2 [2] = assay: cell viability relative to DMSO; higher = less toxic; settings: 72 h
Calu-3 [3] = assay: as above; settings: 72 h
HepG2 [4] = assay: as above; settings: 72 h
U2OS [5] = assay: as above; settings: 72 h
Vero E6 [6] = assay: as above; settings: 72 h
[7] = tested on: A549-ACE2 infected with SARS-CoV-2; assay: SARS-CoV-2 infection rate relative to DMSO; higher = more infection; settings: 24 h
A549-ACE2 = assay: drug-induced phospholipidosis relative to tamoxifen; higher = more phospholipidosis
[8] = tested on: A549-ACE2 infected with SARS-CoV-2; assay: morphology score (similarity to uninfected cells); higher = more like uninfected cells; settings: 24 h
Caco-2 [9] = assay: relative viability EC50 (midpoint between 100% and the lowest measured viability); higher = less toxic; settings: 72 h
Calu-3 [10] = assay: as above; settings: 72 h
HepG2 [11] = assay: as above; settings: 72 h
U2OS [12] = assay: as above; settings: 72 h
Vero E6 [13] = assay: as above; settings: 72 h
Caco-2 [14] = assay: drug sensitivity score (DSS) for viability; higher = more toxic; extreme values may be limits of the assay; settings: 72 h
Calu-3 [15] = assay: as above; settings: 72 h
HepG2 [16] = assay: as above; settings: 72 h
U2OS [17] = assay: as above; settings: 72 h
Vero E6 [18] = assay: as above; settings: 72 h

Cc1[nH]c2ccccc2c1CCNC(=O)c1cccs1 [CK-636]
Settings | SARS-CoV-2 infection rate, [7] [%] | cell count, [1] [%] | cell viability, Caco-2 [2] [%] | cell viability, Calu-3 [3] [%] | cell viability, HepG2 [4] [%] | cell viability, U2OS [5] [%] | cell viability, Vero E6 [6] [%] | morphology score, [8]
1 nM | – | – | 98.9 | 100 | 99.8 | 94 | 104 | –
10 nM | – | – | 99.8 | 90.9 | 104 | 101 | 100 | –
100 nM | – | – | 91.4 | 91.8 | 102 | 94.9 | 103 | –
0.3 µM | 101 | 98 | – | – | – | – | – | -0.06
1000 nM | – | – | 99.6 | 99.7 | 99.8 | 100 | 97 | –
3 µM | 103 | 99 | – | – | – | – | – | -0.01
10 µM | 100 | 101 | – | – | – | – | – | 0.14
10000 nM | – | – | 84.1 | 93.2 | 104 | 93.2 | 99.3 | –
30 µM | 100 | 97 | – | – | – | – | – | 0.06

drug-induced phospholipidosis [%], A549-ACE2
Settings | 0.3 µM | 0.833333 µM | 3.33333 µM | 6.66667 µM | 10 µM | 30 µM
24 h | 6.27 | 1.27 | 2.41 | 2.27 | 5.29 | 11.7
48 h | 3.87 | -1.04 | 2.68 | 4.83 | 2.67 | 12.2
72 h | 1.44 | -4.13 | 1.2 | 4.21 | 4.6 | 12.1

Settings | drug sensitivity score | relative viability EC50 [µM]
Caco-2 [9] | – | > 10
Caco-2 [14] | 0.3 | –
Calu-3 [10] | – | > 10
Calu-3 [15] | 0 | –
HepG2 [11] | – | > 10
HepG2 [16] | 0 | –
U2OS [12] | – | > 10
U2OS [17] | 0 | –
Vero E6 [13] | – | > 10
Vero E6 [18] | 0 | –
